Patent US20260355196A1, “INHIBITORS AND DEGRADERS OF PIP4K PROTEIN” (Larkspur Biosciences, Inc., priority 2023, published 2026)

molecular target: T1, PIP4K2C (Homo sapiens, UniProt Q8TBX8); test: HiBiT PIP4K2C degradation assay in MOLT-4 cells (endogenous PIP4K2C C-terminally tagged with HiBiT); type: cell-based; design: untagged in primary human PBMCs and monocyte-derived dendritic cells; conditions: 6 hours of incubation time, rather than 24 hours; MOLT-4, top concentration 10 micromolar; read-out: HiBIT-degradation MOLT4 PIP4k2C DC50 (6 hours, marked *)
T1 sequence (Q8TBX8 1-421): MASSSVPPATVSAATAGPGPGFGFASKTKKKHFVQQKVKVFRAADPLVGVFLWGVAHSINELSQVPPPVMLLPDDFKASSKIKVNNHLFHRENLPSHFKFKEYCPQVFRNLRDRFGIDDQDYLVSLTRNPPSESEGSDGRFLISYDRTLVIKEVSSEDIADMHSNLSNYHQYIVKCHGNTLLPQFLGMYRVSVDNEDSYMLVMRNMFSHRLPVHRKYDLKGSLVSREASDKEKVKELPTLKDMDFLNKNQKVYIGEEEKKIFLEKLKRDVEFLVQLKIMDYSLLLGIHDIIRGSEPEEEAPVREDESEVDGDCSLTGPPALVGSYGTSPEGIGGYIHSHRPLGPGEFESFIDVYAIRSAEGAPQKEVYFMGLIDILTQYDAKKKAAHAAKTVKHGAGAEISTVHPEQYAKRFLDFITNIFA
Method in brief: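 Endogenous PIP4K2C was C-terminally HiBiT-tagged by CRISPR-Cas9 in MOLT-4 cells, which were treated with a 10-point, 3-fold dilution series from 10 micromolar in duplicate for 24 or 6 hours at 37 C. Remaining protein was read by HiBiT lytic luminescence, and DC50 came from a Hill fit.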

| Structure (SMILES) | DC50 [nM] |
| --- | --- |
| Cn1nc(C2CCC(=O)NC2=O)c2ccc(C3CCN(C[C@H]4CC[C@H](OC(=O)N5CCC(Nc6ncc(F)c(-c7cccc(-n8ccccc8=O)c7)n6)CC5)CC4)CC3)cc21 (stereo partly drawn) [Compound 679, trans-4-((4-(3-(2,6-dioxopiperidin-3-yl)-1-methyl-1H-indazol-6-yl)piperidin-1-yl)methyl)cyclohexyl 4-((5-fluoro-4-(3-(2-oxopyridin-1 (2H)-yl)phenyl)pyrimidin-2-yl)amino)piperidine-1-carboxylate] | < 500 |
| Cn1nc(N2CCC(=O)NC2=O)c2ccc(C3CCN(CC4CCN(C(=O)O[C@H]5CC[C@H](Nc6ncc(F)c(-c7cccc(-c8ccccc8)c7)n6)CC5)CC4)CC3)cc21 [Compound 636, trans-4-((4-([1,1′-biphenyl]-3-yl)-5-fluoropyrimidin-2-yl)amino)cyclohexyl 4-((4-(3-(2,4-dioxotetrahydropyrimidin-1 (2H)-yl)-1-methyl-1H-indazol-6-yl)piperidin-1-yl)methyl)piperidine-1-carboxylate] | < 500 |

Next, values leading:

| DC50 [nM] | Structure (SMILES) |
| --- | --- |
| < 500 | O=C1CC[C@H](Nc2ccc(C3CCN([C@H]4CC[C@H](C(=O)N[C@H]5CC[C@H](Nc6ncc(F)c(-c7cccc(-n8ccccc8=O)c7)n6)CC5)CC4)CC3)c(F)c2)C(=O)N1 [Compound 457, (1S,4R)-4-(4-(4-(((S)-2,6-dioxopiperidin-3-yl)amino)-2-fluorophenyl)piperidin-1-yl)-N-((1r,4R)-4-((5-fluoro-4-(3-(2-oxopyridin-1(2H)-yl)phenyl)pyrimidin-2-yl)amino)cyclohexyl)cyclohexane-1-carboxamide] |
| < 500 | O=C1CCC(Nc2ccc(N3CCC(N4CCC(CC(=O)N[C@H]5CC[C@H](Nc6ncc(F)c(-c7cccc(-n8ccccc8=O)c7)n6)CC5)CC4)CC3)c(F)c2)C(=O)N1 (stereo partly drawn) [Compound 395, trans-2-(1′-(4-((2,6-dioxopiperidin-3-yl)amino)-2-fluorophenyl)-[1,4′-bipiperidin]-4-yl)-N-((1r,4r)-4-((5-fluoro-4-(3-(2-oxopyridin-1(2H)-yl)phenyl)pyrimidin-2-yl)amino)cyclohexyl)acetamide] |
| > 5000 | O=C1CCC(Nc2ccc(C3CCN(C4CCN(C(=O)O[C@H]5CC[C@H](Nc6ncc(F)c(-c7cccc(-n8ccccc8=O)c7)n6)CC5)CC4(F)F)CC3)c(F)c2)C(=O)N1 (stereo partly drawn) [Compound 648, trans-4-((5-fluoro-4-(3-(2-oxopyridin-1 (2H)-yl)phenyl)pyrimidin-2-yl)amino)cyclohexyl 4-(4-((2,6-dioxopiperidin-3-yl)amino)-2-fluorophenyl)-3′,3′-difluoro-[1,4′-bipiperidine]-1′-carboxylate] |
| < 500 | Cn1nc(C2CCC(=O)NC2=O)c2ccc(N3CCN(CC4CCN(C(=O)[C@H]5CC[C@H](Nc6ncc(F)c(-c7cccc(-n8ccccc8=O)c7)n6)CC5)CC4)CC3)cc21 (stereo partly drawn) [Compound 399, 3-(6-(4-((1-(trans-4-((5-fluoro-4-(3-(2-oxopyridin-1(2H)-yl)phenyl)pyrimidin-2-yl)amino)cyclohexane-1-carbonyl)piperidin-4-yl)methyl)piperazin-1-yl)-1-methyl-1H-indazol-3-yl)piperidine-2,6-dione] |
| < 500 | O=C1CCC(Nc2ccc(N3CCC(N4CCC(C(=O)N[C@H]5CC[C@H](Nc6ncc(F)c(-c7cccc(C8CC8)c7)n6)CC5)CC4)C(F)C3)c(F)c2)C(=O)N1 (some centres unmarked) [Compound 502, N-((1r,4r)-4-((4-(3-cyclopropylphenyl)-5-fluoropyrimidin-2-yl)amino)cyclohexyl)-1′-(4-((2,6-dioxopiperidin-3-yl)amino)-2-fluorophenyl)-3′-fluoro-[1,4′-bipiperidine]-4-carboxamide] |
| < 500 | O=C1CCC(Nc2ccc(N3CCC(N4CCC(C(=O)NC5CCC(Nc6ncc(F)c(-c7cccc(-c8ccc[nH]c8=O)c7)n6)CC5)CC4)CC3)c(F)c2)C(=O)N1 [Compound 702, trans-1′-(4-(((S)-2,6-dioxopiperidin-3-yl)amino)-2-fluorophenyl)-N-((1r,4r)-4-((5-fluoro-4-(3-(2-oxo-1,2-dihydropyridin-3-yl)phenyl)pyrimidin-2-yl)amino)cyclohexyl)-[1,4′-bipiperidine]-4-carboxamide] |
| < 500 | O=C1CCC(Nc2ccc(N3CCC(N4CCC(C(=O)N[C@H]5CC[C@H](Nc6ncc(F)c(-c7cccc(N8CCOCC8=O)c7)n6)CC5)CC4)C(F)C3)c(F)c2)C(=O)N1 (some centres unmarked) [Compound 526, 1′-(4-((2,6-dioxopiperidin-3-yl)amino)-2-fluorophenyl)-3′-fluoro-N-((1r,4r)-4-((5-fluoro-4-(3-(3-oxomorpholino)phenyl)pyrimidin-2-yl)amino)cyclohexyl)-[1,4′-bipiperidine]-4-carboxamide] |

same assay, conditions: 24 hours incubation, MOLT-4, top concentration 10 micromolar; read-out: HiBIT-degradation MOLT4 PIP4k2C 24 hours DC50

| DC50 [nM] | Structure (SMILES) |
| --- | --- |
| < 500 | Cn1nc(C2CCC(=O)NC2=O)c2ccc(C3CCN(C(=O)C4(O)CCN(CC(=O)N5CCC(Nc6ncc(Cl)c(-c7cccc(-c8ccc(F)cc8)c7)n6)CC5)CC4)CC3)cc21 (centres unmarked) [Compound 278, 3-(6-(1-(1-(2-(4-((5-chloro-4-(4′-fluoro-[1,1′-biphenyl]-3-yl)pyrimidin-2-yl)amino)piperidin-1-yl)-2-oxoethyl)-4-hydroxypiperidine-4-carbonyl)piperidin-4-yl)-1-methyl-1H-indazol-3-yl)piperidine-2,6-dione] |
| < 500 | Cn1nc(C2CCC(=O)NC2=O)c2ccc(C3CCN(C(=O)CN4CCC(O)(C(=O)N5CCC(Nc6ncc(Cl)c(-c7cccc(-c8ccc(F)cc8)c7)n6)CC5)CC4)CC3)cc21 (centres unmarked) [Compound 289, 3-(6-(1-(2-(4-(4-((5-chloro-4-(4′-fluoro-[1,1′-biphenyl]-3-yl)pyrimidin-2-yl)amino)piperidine-1-carbonyl)-4-hydroxypiperidin-1-yl)acetyl)piperidin-4-yl)-1-methyl-1H-indazol-3-yl)piperidine-2,6-dione] |
| < 500 | O=C1CCC(n2c(=O)oc3cc(N4CCC(CN5CCC(O)(CC(=O)N6CCC(Nc7ncc(F)c(-c8cccc(-n9ccccc9=O)c8)n7)CC6)CC5)CC4)ccc32)C(=O)N1 (centres unmarked) [Compound 380, 3-(6-(4-((4-(2-(4-((5-fluoro-4-(3-(2-oxopyridin-1(2H)-yl)phenyl)pyrimidin-2-yl)amino)piperidin-1-yl)-2-oxoethyl)-4-hydroxypiperidin-1-yl)methyl)piperidin-1-yl)-2-oxobenzo[d]oxazol-3 (2H)-yl)piperidine-2,6-dione] |
| < 500 | O=C1CCC(n2c(=O)oc3cc(C4CCN(CC5CCN(CC(=O)N6CCC(Nc7ncc(F)c(-c8cccc(N9CCCOC9=O)c8)n7)CC6)CC5)CC4)ccc32)C(=O)N1 (centres unmarked) [Compound 371, 3-(6-(1-((1-(2-(4-((5-fluoro-4-(3-(2-oxo-1,3-oxazinan-3-yl)phenyl)pyrimidin-2-yl)amino)piperidin-1-yl)-2-oxoethyl)piperidin-4-yl)methyl)piperidin-4-yl)-2-oxobenzo[d]oxazol-3 (2H)-yl)piperidine-2,6-dione] |
| < 500 | Cn1c(=O)n(C2CCC(=O)NC2=O)c2ccc(C3CCN(CCN4CCC(C(=O)N5CCC(Nc6ncc(Cl)c(-c7cccc(-c8ccccc8)c7)n6)CC5)CC4)CC3)cc21 (centres unmarked) [Compound 45, 3-[5-[1-[2-[4-[4-[[5-chloro-4-(3-phenylphenyl)pyrimidin-2-yl]amino]piperidine-1-carbonyl]-1-piperidyl]ethyl]-4-piperidyl]-3-methyl-2-oxo-benzimidazol-1-yl]piperidine-2,6-dione] |
| < 500 | O=C1CCC(N2Cc3c(OC4CCN(C5CCCN(CC(=O)N6CCC(Nc7ncc(Cl)c(-c8cccc(-c9ccc(F)cc9)c8)n7)CC6)C5)CC4)cccc3C2=O)C(=O)N1 (centres unmarked) [Compound 296, 3-(4-((1′-(2-(4-((5-chloro-4-(4′-fluoro-[1,1′-biphenyl]-3-yl)pyrimidin-2-yl)amino)piperidin-1-yl)-2-oxoethyl)-[1,3′-bipiperidin]-4-yl)oxy)-1-oxoisoindolin-2-yl)piperidine-2,6-dione] |

same assay, conditions: read-out: HiBIT-degradation MOLT4 PIP4k2C DC50 (6 hours, marked *); 6 hours of incubation time, rather than 24 hours; MOLT-4, top concentration 10 micromolar

| DC50 [nM] | Structure (SMILES) |
| --- | --- |
| < 500 | Cn1nc(N2CCC(=O)NC2=O)c2ccc(N3CCN(CC4CCN(C(=O)O[C@H]5CC[C@H](Nc6ncc(F)c(-c7cccc(-c8ccccc8)c7)n6)CC5)CC4)CC3)cc21 [Compound 634, trans-4-((4-([1,1′-biphenyl]-3-yl)-5-fluoropyrimidin-2-yl)amino)cyclohexyl 4-((4-(3-(2,4-dioxotetrahydropyrimidin-1 (2H)-yl)-1-methyl-1H-indazol-6-yl)piperazin-1-yl)methyl)piperidine-1-carboxylate] |
| < 500 | O=C1CCC(Nc2ccc(C3CCN([C@H]4CC[C@H](C(=O)N[C@H]5CC[C@H](Nc6ncc(F)c(-c7cccc(-n8ccccc8=O)c7)n6)CC5)CC4)CC3)c(F)c2)C(=O)N1 (stereo partly drawn) [Compound 345, trans-4-(4-(4-((2,6-dioxopiperidin-3-yl)amino)-2-fluorophenyl)piperidin-1-yl)-N-(trans-4-((5-fluoro-4-(3-(2-oxopyridin-1(2H)-yl)phenyl)pyrimidin-2-yl)amino)cyclohexyl)cyclohexane-1-carboxamide] |
